This is an account of results in paper PMC11370260 (Microbiology Spectrum, 2024).

Molecules are shown by their SMILES.

One assay deals with T1, LasR (Pseudomonas aeruginosa, UniProt P25084).
T1 construct: expressed in transfected cells; host or cells: E. coli DH5α carrying pJN105-L and pSC11-L
As to the kind of experiment: E. coli LasR bioreporter (Para-lasR, PlasI-lacZ), β-galactosidase readout. Type of assay: cell-based. The conditions noted are these: for IC50: IC50 ± CI, LasR reporter, competed against 100 nM 3OC12-HSL, 95% confidence interval in parentheses; for fold lower concentration inhibiting LasR-specific reporter than constitutive reporter: IC50 constitutive reporter vs LasR reporter. From the text: (§1) To characterize compounds for their potential activity as LasR antagonists, we used heterologous E. coli, which enables LasR to be isolated from other host regulation effects. We used an E. coli strain expressing LasR from an arabinose-inducible promoter (Para-lasR) on plasmid pJN105-L and a second plasmid with the LasR-inducible lasI promoter fused to a promoterless lacZ reporter (PlasI-lacZ) on plasmid pSC11-L (Fig. 2A). […] As a control, we also constructed an E. coli strain carrying a plasmid with lacZ expressed from the constitutive aphA-3 promoter ([29], [30]), pVT19.
(§2) To assess LasR activation of lasR expression in recombinant E. coli, we used E. coli strain DH5α carrying two plasmids; plasmid pJN105-L ([50]) with an arabinose-inducible P. aeruginosa lasR and plasmid pSC11-L ([51]) with the promoter of the LasR-responsive gene lasI fused to a lacZ reporter. For some studies, pJN105-L was replaced with derivatives of this plasmid encoding LasR mutants with single amino acid substitutions ([33]). To assess RhlR activation of rhlR expression in recombinant E. coli, we used E. coli DH5α with plasmid pECP61.5 ([38]) with an IPTG-inducible ptac-rhlR and an RhlR-responsive gene rhlA fused to the lacZ reporter. For constitutive expression of the lacZ reporter, we used E. coli DH5α with plasmid pVT19, which has the lacZ gene fused to the constitutive aphA-3 promoter. To construct pVT19, the constitutive aphA-3 promoter ([29], [30]) was amplified from a pTCV-lac derivative using primers Vlac1 and Vlac2 ([30]). The resulting amplicon was digested with EcoRI and BamHI and ligated into similarly digested pKS12A ([52]). The resulting plasmid with the aphA-3 promoter transcriptionally fused to lacZ was designated pVT19. For constitutive expression of the gfp reporter, we used E. coli DH5α with plasmid pUC18T-mini-Tn7T-Gm-gfpmut3 ([53]).
(§3) To assess LasR activation of lasR expression in recombinant E. coli, overnight cultures of E. coli DH5α pSC11-L and pJN105-L were diluted 1:100 into LB containing selection antibiotics gentamicin and ampicillin in 10 mL cultures. When the cultures reached an OD600 of 0.2–0.3, L-(+)-arabinose was added to a final concentration of 0.25%. […] Aliquots (5 µL) of increasing concentrations of inhibitor test compound stock solution in DMSO were then added to the designated micro centrifuge tubes containing culture. Tubes containing E. coli with just signal and DMSO were included as controls. After 3 h at 37°C with shaking, OD600 was measured using a plate reader, and β-galactosidase activity was measured as described above.

Assay [1] deals with constitutive aphA-3-lacZ reporter. As to the kind of experiment: E. coli constitutive aphA-3-lacZ reporter (pVT19), LasR reporter conditions. Type of assay: cell-based. The conditions noted are these: Escherichia coli, read-out: IC50 ± CI, Constitutive reporter.
From the text: as §1, §2, §3
(§4) Experiments with the LasR mutants and the constitutive lacZ expression plasmid pVT19 or constitutive gfp expression plasmid pUC18T-mini-Tn7T-Gm-gfpmut3 were carried out identically as described above for the LasR or RhlR bioreporter experiments. Results with the […] constitutive reporter strain were different for the LasR vs RhlR bioreporter protocols likely due to differences in growth conditions (temperature and/or growth media).

A further assay concerns the target T2, RhlR (Pseudomonas aeruginosa, UniProt P54292).
T2 construct: expressed in transfected cells; host or cells: E. coli DH5α carrying pECP61.5
As to the kind of experiment: E. coli RhlR bioreporter (pECP61.5, rhlA-lacZ), β-galactosidase readout. Type of assay: cell-based.
From the text: (§5) To test the ability of our set of benzaldehydes and related compounds to antagonize RhlR, we generated dose-response curves with these compounds using an E. coli RhlR reporter strain (Fig. 6; Table 2). This strain is analogous to the LasR reporter above, but it carries plasmid pECP61.5 expressing RhlR from the isopropyl β-D-1-thiogalactopyranoside (IPTG)-inducible […] promoter as well as the rhlA-lacZ reporter ([38]). We also utilized our constitutive lacZ reporter plasmid pVT19 to generate dose-response curves using the RhlR assay conditions (Fig. 6; Table 2). […] With the constitutive lacZ reporter, there was a similar spread in potencies for our compounds, with ortho-vanillin having the lowest IC50 and salicylic acid as the highest. However, the IC50 for ortho-vanillin was fivefold lower with RhlR than with the constitutive lacZ reporter. There were also no observed effects of ortho-vanillin on growth until concentrations at which there was >50% antagonism of the RhlR reporter, and there was no antagonism of the constitutive lacZ reporter until concentrations >500 µM.
as §2
(§6) To assess RhlR activation of rhlR expression in recombinant E. coli, overnight cultures of E. coli DH5α pECP61.5 grown at 30°C in A medium containing antibiotic selection (ampicillin) and IPTG to induce RhlR expression were diluted to an OD600 of 0.1, and 1 mL was added to culture tubes containing dried C4-HSL. Aliquots (5 µL) of DMSO containing increasing concentrations of inhibitor test compound or DMSO with no test compound were added to the designated Eppendorf tubes containing culture. Tubes containing E. coli with signal and DMSO were included as vehicle control. After 5 h at 30°C with shaking, OD600 was measured using a plate reader, and β-galactosidase activity was measured as described above.

Assay [2] deals with constitutive aphA-3-lacZ reporter. As to the kind of experiment: E. coli constitutive aphA-3-lacZ reporter (pVT19), RhlR reporter conditions. The format is cell-based, Escherichia coli. The conditions noted are these: for IC50: Escherichia coli.
From the text: as §5, §2, §6, §4

In assay [3] the test system is constitutive GFP reporter. Briefly: E. coli constitutive GFP reporter (pUC18T-mini-Tn7T-Gm-gfpmut3). The format is cell-based, Escherichia coli.
From the text: To test whether these effects were specific to the lacZ reporter or general to other reporters, we generated an orsellinaldehyde dose-response curve using a strain constitutively expressing GFP (E. coli carrying a constitutive GFP-producing plasmid pUC18T-mini-Tn7T-Gm-gfpmut3).
as §2, with “The resulting plasmid with the aphA-3 promoter transcriptionally fused to lacZ was designated pVT19. For constitutive expression of the gfp reporter, we used E. coli DH5α with plasmid pUC18T-mini-Tn7T-Gm-gfpmut3 ([53]).” left out

Another assay relates to E. coli. Briefly: Growth (OD600) of E. coli reporter strain, LasR reporter conditions. Type of assay: cell-based, Escherichia coli. The conditions noted are these: at the highest concentrations. Here is the method: as §3
For assay [4], the target named is T3, LasR mutants (Pseudomonas aeruginosa, UniProt P25084, S129A).
T3 construct: expressed in transfected cells; host or cells: E. coli DH5α carrying pSC11-L and a pJN105-L mutant analog (pJG044, pJG008, pJG011, pJG012 or pJG014)
Briefly: E. coli LasR mutant lasI-lacZ reporters (W60F, Y56F, T75V, Y93F, S129A). The format is cell-based. The note with it: S129A mutant.
From the text: (§7) To examine these putative interactions between ortho-vanillin and LasR, we determined the activity of ortho-vanillin in several LasR mutants. In prior studies in our laboratories, a set of LasR mutants were generated in which residues within the ligand-binding pocket were mutated to a different residue of similar steric size but without the capability to hydrogen bond (e.g., Tyr → Phe). These mutants were introduced into E. coli to generate lasI-lacZ reporters analogous to the wild-type LasR reporter above (see Table S1 and Materials and Methods). From that set, we selected five LasR mutant reporters to test ortho-vanillin (W60F, Y56F, T75V, Y93F, and S129A), which included the Thr75 and Ser129 residues predicted to be important for ortho-vanillin interaction in our in silico study. […] As a control, we also tested the ability of V-06–018 to antagonize the LasR S129A mutant. We used the same approach to test the ability of […] to antagonize LasR and the LasR S129A mutant. […] Results from one of the concentrations (100 µM) are shown instead.
as §2, with “The resulting amplicon was digested with EcoRI and BamHI and ligated into similarly digested pKS12A ([52]). The resulting plasmid with the aphA-3 promoter transcriptionally fused to lacZ was designated pVT19. For constitutive expression of the gfp reporter, we used E. coli DH5α with plasmid pUC18T-mini-Tn7T-Gm-gfpmut3 ([53]).” left out

Assay [5] has as its system LasR mutants. Described as above. Type of assay: cell-based, Pseudomonas aeruginosa. The conditions noted are these: W60F, Y56F, T75V, Y93F, S129A; competed against 3OC12-HSL at EC50 of each mutant.
From the text: as §7
as §2, with “The resulting amplicon was digested with EcoRI and BamHI and ligated into similarly digested pKS12A ([52]). The resulting plasmid with the aphA-3 promoter transcriptionally fused to lacZ was designated pVT19. For constitutive expression of the gfp reporter, we used E. coli DH5α with plasmid pUC18T-mini-Tn7T-Gm-gfpmut3 ([53]).” left out

The mark [6] stands for this setting: IC50 ± CI, RhlR reporter, competed against 400 nM C4-HSL, 95% confidence interval in parentheses.
[7] abbreviates: read-out: IC50 ± CI, Constitutive reporter.

T2 sequence (P54292 whole entry): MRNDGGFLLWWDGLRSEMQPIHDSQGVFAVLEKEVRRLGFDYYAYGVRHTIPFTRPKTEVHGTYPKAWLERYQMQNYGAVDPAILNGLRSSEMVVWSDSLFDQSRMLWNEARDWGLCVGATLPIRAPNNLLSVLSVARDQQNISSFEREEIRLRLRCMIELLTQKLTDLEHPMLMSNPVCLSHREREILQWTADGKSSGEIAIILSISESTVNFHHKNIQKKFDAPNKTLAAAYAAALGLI
T1 sequence (P25084 whole entry): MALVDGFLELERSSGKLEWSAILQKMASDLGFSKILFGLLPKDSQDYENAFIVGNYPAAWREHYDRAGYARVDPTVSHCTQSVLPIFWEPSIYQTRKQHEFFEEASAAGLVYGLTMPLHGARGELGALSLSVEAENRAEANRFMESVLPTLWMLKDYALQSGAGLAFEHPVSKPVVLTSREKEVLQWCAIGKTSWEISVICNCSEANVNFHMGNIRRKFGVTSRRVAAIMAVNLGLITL
T3 sequence (P25084 whole entry S129A): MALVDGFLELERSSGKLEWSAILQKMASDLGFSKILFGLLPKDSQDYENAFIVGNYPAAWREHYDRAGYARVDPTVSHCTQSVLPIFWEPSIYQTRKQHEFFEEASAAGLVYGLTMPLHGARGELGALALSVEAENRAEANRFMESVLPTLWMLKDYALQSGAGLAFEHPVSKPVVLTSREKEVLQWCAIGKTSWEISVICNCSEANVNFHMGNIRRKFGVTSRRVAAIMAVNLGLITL

For the compound `COc1ccc(C=O)c(O)c1` [2-hydroxy-4-methoxybenzaldehyde], the IC50 at LasR stood at 1040 µM; in assay [1] it was 1960 µM; on RhlR (setting [6]), 458 µM; in assay [2] (setting [7]), 1360 µM.
On to `Cc1ccc(O)c(C=O)c1` [2-hydroxy-5-methylbenzaldehyde], for which the “fold lower concentration inhibiting LasR-specific reporter than constitutive reporter” value at LasR is on record as 1.3 fold. The IC50 on LasR is 1500 µM; in assay [1], 2020 µM; at RhlR (setting [6]) it was 1080 µM; in assay [2] (setting [7]), 1790 µM.
Regarding `O=C/C=C/c1ccccc1` [Cinnamaldehyde], the IC50 came out at 851 µM at LasR, 1460 µM in assay [1], 1310 µM on RhlR (setting [6]) and 2850 µM in assay [2] (setting [7]).
For the compound `Cc1cc(O)cc(O)c1C=O` [Orsellinaldehyde], the IC50 at LasR is 2370 µM; in assay [1], 2310 µM; on RhlR (setting [6]), 956 µM; in assay [2] (setting [7]) it was 2750 µM; in assay [3] (Escherichia coli, read-out: IC50, constitutive GFP reporter) it was 1060 µM. The “calculated LD50 of orsellinaldehyde with GFP” value in assay [3] (E. coli constitutive GFP reporter, Fig. S1 legend) is 1057 µM. The “reduction of growth yield” value with E. coli was 10%–20%.
As for `O=C(O)c1ccccc1O` [Salicylic acid, reference compound], the IC50 in assay [1] was 3650 µM; on RhlR (IC50, RhlR reporter, competed against C4-HSL), approximately 10000 µM; on RhlR (setting [6]), 10000 µM; in assay [2] (setting [7]), 6260 µM.
As to `CCCCCCCCCC(=O)CC(=O)Nc1ccccc1` [V-06–018], the “antagonism of LasR S129A mutant compared with wild-type LasR” value on LasR mutants [4] (competed against 3OC12-HSL at its EC50) is reported as “significantly less active”. In addition, on LasR mutants [4] (insufficient antagonism), the “IC50, LasR S129A mutant” value is on record as “could not be determined”.
As for `COc1cccc(C=O)c1O` [ortho-Vanillin], the “difference in IC50 with varying 3OC12-HSL concentration (competition test)” value at LasR (3OC12-HSL at […] nM, 1 µM and 10 µM, P > 0.07) is recorded as “not significant”. For the same compound, the “fold lower concentration inhibiting LasR-specific reporter than constitutive reporter” value on LasR is recorded as “threefold”. In addition, the IC50 at LasR came to 437 µM; in assay [1], 1260 µM; at RhlR (setting [6]), 151 µM; in assay [2] (read-out: IC50, Constitutive reporter, Hill slope set at 1.0), 774 µM; in assay [2] (setting [7]) it was 872 µM. Further, the “change in potency with varying C4-HSL concentration (competition test)” value at RhlR (C4-HSL at 400 nM, 10 µM and 100 µM) is recorded as “significant C4-HSL concentration-dependent decrease in the potency”. Further, the “fold lower IC50 with RhlR than with constitutive lacZ reporter” value at RhlR (IC50 constitutive lacZ reporter vs RhlR reporter) is “fivefold”. In assay [2] (RhlR reporter conditions), the “concentration until which there was no antagonism of the constitutive lacZ reporter” value is more than 500 µM. Moreover, the “antagonism of LasR mutants compared with wild-type LasR” value in the assay with LasR mutants [5] was “indistinguishable from that of the wild-type LasR”.

For orientation: IC50 means the concentration that gives 50% inhibition.
